Assay results: ChEMBL document CHEMBL1765071, “Single photon emission computed tomography/positron emission tomography imaging and targeted radionuclide therapy of melanoma: new multimodal fluorinated and iodinated radiotracers” (J Med Chem, 2011)

Legend:
Mus musculus [1] = assay: Biodistribution in mouse B16F0 cells bearing iv dosed C57B16 mouse tumor assessed as absorption dose; type: ADME, organism-based, Neoplasm; conditions: in vivo
[2] = Antitumor activity against mouse B16F0 cells bearing C57B16 mouse assessed as inhibition of tumor growth doubling time at 18.5 MBq, iv administered 2 times on day 6 and 10; type: functional
Mus musculus [3] = assay: Biodistribution in mouse B16F0 cells bearing C57B16 mouse tumor at 1.26 to 5.29 MBq, iv after 7 days; type: ADME, organism-based, Neoplasm; conditions: in vivo, 168 h
Mus musculus [4] = assay: Biodistribution in mouse B16F0 cells bearing C57B16 mouse tumor at 1.26 to 5.29 MBq, iv after 5 days; type: ADME, organism-based, Neoplasm; conditions: in vivo, 120 h
Mus musculus [5] = assay: Biodistribution in mouse B16F0 cells bearing C57B16 mouse tumor at 1.26 to 5.29 MBq, iv after 6 hrs; type: ADME, organism-based, Neoplasm; conditions: in vivo
Mus musculus [6] = assay: Biodistribution in mouse B16F0 cells bearing C57B16 mouse tumor at 1.26 to 5.29 MBq, iv after 72 hrs; type: ADME, organism-based, Neoplasm; conditions: in vivo
Mus musculus [7] = assay: Biodistribution in mouse B16F0 cells bearing C57B16 mouse tumor at 1.26 to 5.29 MBq, iv after 1 hr; type: ADME, organism-based, Neoplasm; conditions: in vivo
Mus musculus [8] = assay: Biodistribution in mouse B16F0 cells bearing C57B16 mouse tumor at 1.26 to 5.29 MBq, iv after 14 days; type: ADME, organism-based, Neoplasm; conditions: in vivo, 336 h
Mus musculus [9] = assay: Biodistribution in mouse B16F0 cells bearing C57B16 mouse tumor at 1.26 to 5.29 MBq, iv after 10 days; type: ADME, organism-based, Neoplasm; conditions: in vivo, 240 h
Mus musculus [10] = assay: Biodistribution in mouse B16F0 cells bearing C57B16 mouse tumor at 1.26 to 5.29 MBq, iv after 3 hrs; type: ADME, organism-based, Neoplasm; conditions: in vivo
Mus musculus [11] = assay: Biodistribution in mouse B16F0 cells bearing C57B16 mouse tumor at 1.26 to 5.29 MBq, iv after 24 hrs; type: ADME, organism-based, Neoplasm; conditions: in vivo
Mus musculus [12] = assay: Biodistribution in mouse B16F0 cells bearing C57B16 mouse throat at 2.7 MBq, iv after 1 hr; type: ADME, organism-based; conditions: in vivo
Nucleic Acid [13] = assay: Ratio of drug uptake in tumor to muscle in mouse B16F0 cells bearing C57B16 mouse at 2.7 MBq, iv after 1 hr; type: ADME, organism-based; conditions: in vivo
[14] = Biodistribution in mouse B16F0 cells bearing C57B16 mouse feces at 2.7 MBq, iv after up to 72 hrs; type: ADME, organism-based; conditions: in vivo
[15] = Biodistribution in mouse B16F0 cells bearing C57B16 mouse feces at 2.7 MBq, iv after up to 24 hrs; type: ADME, organism-based; conditions: in vivo
Mus musculus [16] = assay: Biodistribution in mouse B16F0 cells bearing C57B16 mouse throat at 2.7 MBq, iv after 10 days; type: ADME, organism-based; conditions: in vivo, 240 h
[17] = Biodistribution in mouse B16F0 cells bearing C57B16 mouse urine at 2.7 MBq, iv after up to 24 hrs; type: ADME, organism-based; conditions: in vivo
[18] = Biodistribution in mouse B16F0 cells bearing C57B16 mouse urine at 2.7 MBq, iv after up to 82 hrs; type: ADME, organism-based; conditions: in vivo
Nucleic Acid [19] = assay: Ratio of drug uptake in tumor to muscle in mouse B16F0 cells bearing C57B16 mouse at 2.7 MBq, iv after 3 hrs; type: ADME, organism-based; conditions: in vivo

Structure (SMILES) | Drug uptake (Mus musculus [1]) | Time [2] | Drug uptake (Mus musculus [3]) | Drug uptake (Mus musculus [4]) | Drug uptake (Mus musculus [5]) | Drug uptake (Mus musculus [6]) | Drug uptake (Mus musculus [7]) | Drug uptake (Mus musculus [8]) | Drug uptake (Mus musculus [9]) | Drug uptake (Mus musculus [10]) | Drug uptake (Mus musculus [11]) | Drug uptake (Mus musculus [12]) | Ratio (Nucleic Acid [13]) | Drug uptake [14] | Drug uptake [15] | Drug uptake (Mus musculus [16]) | Drug uptake [17] | Drug uptake [18] | Ratio (Nucleic Acid [19])
CCN(CCNC(=O)c1cnc2cc([131I])ccc2n1)CCOc1cccnc1F.Cl.Cl | 1.12 Gy/MBq | 3.8 days |  |  |  |  |  |  |  |  |  |  |  |  |  |  |  |  | 
CCN(CC)Cc1ccnc(F)c1CNC(=O)c1cnc2cc([125I])ccc2n1.Cl.Cl |  |  | 1.5 % ID/g | 2.4 % ID/g | 6.7 % ID/g | 4.1 % ID/g | 5.6 % ID/g | 0.7 % ID/g | 0.8 % ID/g | 6.5 % ID/g | 6.4 % ID/g |  |  |  |  |  |  |  | 
CCN(CC)CCNC(=O)c1cnc2cc([131I])ccc2n1.Cl.Cl | 1.71 Gy/MBq |  |  |  |  |  |  |  |  |  |  |  |  |  |  |  |  |  | 
CCN(CCNC(=O)c1ccnc(F)c1)CCNC(=O)c1cnc2cc([125I])ccc2n1.Cl.Cl |  |  |  | 5.1 % ID/g | 12.1 % ID/g | 9.6 % ID/g | 9.6 % ID/g |  |  | 8.8 % ID/g | 12.1 % ID/g |  |  |  |  |  |  |  | 
CCN(CCNC(=O)c1cn2cc([125I])ccc2n1)CCOc1cccnc1F.Cl.Cl |  |  | 3.9 % ID/g | 6.4 % ID/g | 13.4 % ID/g | 8.6 % ID/g | 13.2 % ID/g | 1.6 % ID/g | 2.3 % ID/g | 13.1 % ID/g | 15.6 % ID/g |  |  |  |  |  |  |  | 
CCN(CCNC(=O)c1cnc2cc([125I])ccc2n1)CCNc1cccc(F)n1.Cl.Cl |  |  | 1.5 % ID/g | 2.6 % ID/g | 12.5 % ID/g | 5.7 % ID/g | 13.1 % ID/g | 0.4 % ID/g | 0.8 % ID/g | 13.7 % ID/g | 8.6 % ID/g |  |  |  |  |  |  |  | 
CCN(CCNC(=O)c1ccc2cc([125I])ccc2n1)CCOc1cccnc1F.Cl.Cl |  |  | 1.1 % ID/g | 2.3 % ID/g | 9.7 % ID/g | 3.2 % ID/g | 10.7 % ID/g | 0.2 % ID/g | 0.4 % ID/g | 10.8 % ID/g | 6.3 % ID/g |  |  |  |  |  |  |  | 
CCN(CCNC(=O)c1cnc2cc([125I])ccc2n1)Cc1ccnc(F)c1.Cl.Cl |  |  |  | 7.1 % ID/g | 15.4 % ID/g | 10 % ID/g | 10.3 % ID/g | 0.8 % ID/g | 1.9 % ID/g | 12 % ID/g | 16 % ID/g |  |  |  |  |  |  |  | 
CCN(CCNC(=O)c1cnc2cc([125I])ccc2n1)CCOc1cccnc1F.Cl.Cl |  |  | 3.2 % ID/g | 5.2 % ID/g | 18.8 % ID/g | 10.3 % ID/g | 12.7 % ID/g | 0.6 % ID/g | 1.7 % ID/g | 20.2 % ID/g | 18.2 % ID/g | 1.5 %ID | 23 | 18.7 %ID | 36.1 %ID | 0.1 %ID | 38.1 %ID | 45.1 %ID | 37
